Results reported in the supplement of paper PMC13380429.

How the values were obtained:
Conditions in all cases: 72 h
U2OS [1] = test: cell viability relative to DMSO; higher = less toxic
Calu-3 [2] = test: as above
Vero E6 [3] = test: as above
Caco-2 [4] = test: as above
HepG2 [5] = test: as above
U2OS [6] = test: drug sensitivity score (DSS) for viability; higher = more toxic; extreme values may be limits of the assay
Calu-3 [7] = test: as above
Vero E6 [8] = test: as above
Caco-2 [9] = test: as above
HepG2 [10] = test: as above
U2OS [11] = test: relative viability EC50 (midpoint between 100% and the lowest measured viability); higher = less toxic
Calu-3 [12] = test: as above
Vero E6 [13] = test: as above
Caco-2 [14] = test: as above
HepG2 [15] = test: as above

Row | Structure (SMILES) | cell viability (U2OS [1]; 1 nM) | cell viability (U2OS [1]; 10 nM) | cell viability (U2OS [1]; 100 nM) | cell viability (U2OS [1]; 1000 nM) | cell viability (U2OS [1]; 10000 nM) | cell viability (Calu-3 [2]; 1 nM) | cell viability (Calu-3 [2]; 10 nM) | cell viability (Calu-3 [2]; 100 nM) | cell viability (Calu-3 [2]; 1000 nM) | cell viability (Calu-3 [2]; 10000 nM) | cell viability (Vero E6 [3]; 1 nM) | cell viability (Vero E6 [3]; 10 nM) | cell viability (Vero E6 [3]; 100 nM) | cell viability (Vero E6 [3]; 1000 nM) | cell viability (Vero E6 [3]; 10000 nM) | cell viability (Caco-2 [4]; 1 nM) | cell viability (Caco-2 [4]; 10 nM) | cell viability (Caco-2 [4]; 100 nM) | cell viability (Caco-2 [4]; 1000 nM) | cell viability (Caco-2 [4]; 10000 nM) | cell viability (HepG2 [5]; 1 nM) | cell viability (HepG2 [5]; 10 nM) | cell viability (HepG2 [5]; 100 nM) | cell viability (HepG2 [5]; 1000 nM) | cell viability (HepG2 [5]; 10000 nM) | drug sensitivity score (U2OS [6]) | drug sensitivity score (Calu-3 [7]) | drug sensitivity score (Vero E6 [8]) | drug sensitivity score (Caco-2 [9]) | drug sensitivity score (HepG2 [10]) | relative viability EC50 (U2OS [11]) | relative viability EC50 (Calu-3 [12]) | relative viability EC50 (Vero E6 [13]) | relative viability EC50 (Caco-2 [14]) | relative viability EC50 (HepG2 [15])
1 | CC(C)C[C@H](NC(=O)[C@@H](Cc1c[nH]c2ccccc12)NC(=O)[C@H](Cc1ccc(O)cc1)NC(=O)[C@H](CO)NC(=O)[C@H](Cc1c[nH]c2ccccc12)NC(=O)[C@H](Cc1c[nH]cn1)NC(=O)[C@@H]1CCC(=O)N1)C(=O)N[C@@H](CCCNC(=N)N)C(=O)N1CCC[C@H]1C(=O)NCC(N)=O [triptorelin] | 91.2% | 102% | 96.8% | 99.2% | 108% | 90.2% | 80.1% | 90% | 99.2% | 106% | 94.5% | 98.5% | 98% | 74.8% | 107% | 95.7% | 110% | 92.8% | 102% | 110% | 102% | 86.3% | 93% | 110% | 120% | 0 | 0 | 0 | 0 | 0 | > 10 µM | > 10 µM | > 10 µM | > 10 µM | > 10 µM
2 | CN1[C@@H]2CC[C@H]1C[C@@H](OC(=O)c1c[nH]c3ccccc13)C2 [tropisetron] | 104% | 103% | 96.8% | 100% | 98.3% | 100% | 93.8% | 99.9% | 88.6% | 97.6% | 98.2% | 97.3% | 98.2% | 99.9% | 96.2% | 102% | 108% | 101% | 103% | 97.5% | 100% | 101% | 93.1% | 96.7% | 101% | 0 | 0 | 0 | 0 | 0 | > 10 µM | > 10 µM | > 10 µM | > 10 µM | > 10 µM
3 | CCC(CO)(C(=O)OC1CC2CCC(C1)[N+]2(C)C)c1ccccc1 (stereo not given) [troventol] | 97.3% | 94.3% | 99.4% | 97.8% | 105% | 99.8% | 94.6% | 91.8% | 102% | 93.9% | 93.7% | 96% | 86.6% | 97.8% | 110% | 92.5% | 92.6% | 98.5% | 94.2% | 94.2% | 93.6% | 103% | 93.1% | 107% | 113% | 0 | 0 | 0 | 0 | 0 | > 10 µM | > 10 µM | > 10 µM | > 10 µM | > 10 µM
4 | Cc1cc(Cn2nnc3c(-c4ccco4)nc(N)nc32)ccc1N [vipadenant] | 99.6% | 97.7% | 98.2% | 98.7% | 101% | 108% | 103% | 108% | 94.1% | 107% | 109% | 105% | 99.7% | 92.8% | 88.7% | 110% | 106% | 115% | 113% | 97.1% | 81.9% | 80.5% | 99% | 91.8% | 96.3% | 0 | 0 | 0.2 | 0 | 0 | > 10 µM | > 10 µM | > 10 µM | > 10 µM | > 10 µM
5 | O=C(O)c1ccccc1-c1ccc(C(F)(F)F)cc1 [xenalipin] | 100% | 95.8% | 103% | 98% | 105% | 101% | 101% | 111% | 98.6% | 107% | 98.6% | 104% | 92.2% | 98.6% | 98.2% | 97.1% | 92.8% | 99% | 92.1% | 97.6% | 89.1% | 90.8% | 94.6% | 97% | 109% | 0 | 0 | 0 | 0 | 0 | > 10 µM | > 10 µM | > 10 µM | > 10 µM | > 10 µM
6 | O=C1Cc2cc(CCN3CCN(c4nsc5ccccc45)CC3)c(Cl)cc2N1 [ziprasidone] | 101% | 99.4% | 100% | 98.9% | 96.4% | 103% | 97.8% | 91.9% | 97.4% | 108% | 106% | 105% | 95.8% | 104% | 98.4% | 100% | 90.5% | 98.3% | 102% | 75.6% | 105% | 120% | 102% | 103% | 83.8% | 0 | 0 | 0 | 0.8 | 0.2 | > 10 µM | > 10 µM | > 10 µM | > 10 µM | > 10 µM
